Reference: ChEMBL document CHEMBL3525917, “Species difference in the mechanism of nonlinear pharmacokinetics of E2074, a novel sodium channel inhibitor, in rats, dogs, and monkeys” (Drug Metab Dispos, 2013)

What was measured:
[1] = Fraction unbound in beagle dog plasma at 0.25 uM by equilibrium dialysis technique; format: ADME, cell-free, Canis lupus familiaris
[2] = Volume of distribution at steady state in beagle dog at 1 mg/kg, iv; format: ADME, organism-based, Canis lupus familiaris; parameters: dose 1 mg/kg, route intravenous; details: in vivo, read-out: Vdss
[3] = Drug metabolism in cynomolgus monkey liver microsomes after 15 mins by Michaelis-Menten plot analysis; format: ADME, Macaca fascicularis
[4] = Cmax in Sprague-Dawley rat at 3 mg/kg, po; format: ADME, organism-based; parameters: dose 3 mg/kg, route oral; details: in vivo
[5] = Oral bioavailability in Sprague-Dawley rat at 30 mg/kg; format: ADME, organism-based; details: in vivo
[6] = Half life in Sprague-Dawley rat at 30 mg/kg, po; format: ADME, organism-based; parameters: dose 30 mg/kg, route oral; details: in vivo
[7] = Fraction unbound in Sprague-Dawley rat plasma at 0.25 uM by equilibrium dialysis technique; format: ADME, cell-free
[8] = Tmax in cynomolgus monkey at 10 mg/kg, po in presence of ketoconazole; format: ADME, organism-based, Macaca fascicularis; parameters: dose 10 mg/kg, route oral; details: in vivo
[9] = AUC in cynomolgus monkey at 10 mg/kg, po; format: ADME, organism-based, Macaca fascicularis; parameters: dose 10 mg/kg, route oral; details: plasma
[10] = biological target: T1, MDR1A (ABCB1, P-glycoprotein) (Mus musculus, UniProt P21447); assay: Activity of mouse MDR1A expressed in pig LLC-PK1 cells assessed as permeability from apical to basolateral side at 1 uM after 2 hrs; format: ADME, cell-based; details: read-out: permeability
T1 sequence (P21447 whole entry): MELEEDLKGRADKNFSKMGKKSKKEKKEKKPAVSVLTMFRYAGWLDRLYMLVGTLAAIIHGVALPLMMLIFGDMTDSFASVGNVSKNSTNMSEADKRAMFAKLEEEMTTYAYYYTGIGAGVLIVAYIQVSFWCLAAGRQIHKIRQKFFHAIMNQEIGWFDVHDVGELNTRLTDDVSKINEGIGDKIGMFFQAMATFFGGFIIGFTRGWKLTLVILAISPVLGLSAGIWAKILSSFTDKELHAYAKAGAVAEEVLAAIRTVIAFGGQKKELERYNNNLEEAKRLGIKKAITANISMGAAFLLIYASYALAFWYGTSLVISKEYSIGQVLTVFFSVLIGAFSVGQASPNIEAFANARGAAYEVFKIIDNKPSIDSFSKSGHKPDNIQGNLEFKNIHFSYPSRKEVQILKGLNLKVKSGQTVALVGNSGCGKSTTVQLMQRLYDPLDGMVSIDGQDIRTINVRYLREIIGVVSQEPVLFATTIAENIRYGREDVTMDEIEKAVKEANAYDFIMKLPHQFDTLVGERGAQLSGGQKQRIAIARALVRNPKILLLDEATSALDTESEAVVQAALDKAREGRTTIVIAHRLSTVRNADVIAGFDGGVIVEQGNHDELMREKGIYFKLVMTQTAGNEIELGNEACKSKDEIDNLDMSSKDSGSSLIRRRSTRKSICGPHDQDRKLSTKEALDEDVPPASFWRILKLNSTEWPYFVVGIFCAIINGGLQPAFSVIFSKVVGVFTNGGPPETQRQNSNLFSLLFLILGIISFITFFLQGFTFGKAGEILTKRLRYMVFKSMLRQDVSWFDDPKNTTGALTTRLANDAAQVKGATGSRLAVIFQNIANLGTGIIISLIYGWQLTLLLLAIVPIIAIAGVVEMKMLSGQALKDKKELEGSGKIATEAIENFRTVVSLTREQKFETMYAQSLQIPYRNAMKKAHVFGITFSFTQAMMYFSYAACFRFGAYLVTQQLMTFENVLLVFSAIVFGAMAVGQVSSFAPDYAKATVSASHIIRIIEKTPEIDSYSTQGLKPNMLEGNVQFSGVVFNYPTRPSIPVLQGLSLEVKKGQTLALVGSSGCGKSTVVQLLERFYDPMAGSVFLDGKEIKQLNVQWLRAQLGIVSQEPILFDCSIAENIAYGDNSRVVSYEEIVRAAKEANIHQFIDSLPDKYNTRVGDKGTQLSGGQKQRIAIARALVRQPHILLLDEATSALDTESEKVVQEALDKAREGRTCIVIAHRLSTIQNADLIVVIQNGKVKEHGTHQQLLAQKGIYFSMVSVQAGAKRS

[11] = Oral bioavailability in beagle dog at 10 mg/kg; format: ADME, organism-based, Canis lupus familiaris; details: in vivo
[12] = Fraction unbound in cynomolgus monkey liver microsomes at 0.25 uM by equilibrium dialysis technique; format: ADME, Macaca fascicularis
[13] = Clearance in beagle dog at 1 mg/kg, iv; format: ADME, organism-based, Canis lupus familiaris; parameters: dose 1 mg/kg, route intravenous; details: in vivo
[14] = Tmax in Sprague-Dawley rat at 10 mg/kg, po; format: ADME, organism-based; parameters: dose 10 mg/kg, route oral; details: in vivo
[15] = organism: Rattus norvegicus; assay: Hepatic blood clearance in Sprague-Dawley rat; format: ADME, organism-based; details: in vivo
[16] = Fraction unbound in Sprague-Dawley rat liver microsomes at 0.25 uM by equilibrium dialysis technique; format: ADME
[17] = Volume of distribution at steady state in Sprague-Dawley rat at 1 mg/kg, iv; format: ADME, organism-based; parameters: dose 1 mg/kg, route intravenous; details: in vivo, read-out: Vdss
[18] = Half life in cynomolgus monkey at 10 mg/kg, po; format: ADME, organism-based, Macaca fascicularis; parameters: dose 10 mg/kg, route oral; details: in vivo
[19] = Tmax in Sprague-Dawley rat at 30 mg/kg, po; format: ADME, organism-based; parameters: dose 30 mg/kg, route oral; details: in vivo
[20] = Blood clearance in beagle dog; format: ADME, organism-based, Canis lupus familiaris
[21] = Fraction unbound in beagle dog liver microsomes at 0.25 uM by equilibrium dialysis technique; format: ADME, Canis lupus familiaris
[22] = Oral bioavailability in Sprague-Dawley rat at 10 mg/kg; format: ADME, organism-based; details: in vivo
[23] = Oral bioavailability in Sprague-Dawley rat at 3 mg/kg; format: ADME, organism-based; details: in vivo
[24] = Half life in beagle dog at 1 mg/kg, iv; format: ADME, organism-based, Canis lupus familiaris; parameters: dose 1 mg/kg, route intravenous; details: in vivo
[25] = Tmax in beagle dog at 3 mg/kg, po; format: ADME, organism-based, Canis lupus familiaris; parameters: dose 3 mg/kg, route oral; details: in vivo
[26] = AUC in cynomolgus monkey at 1 mg/kg, iv in presence of ketoconazole; format: ADME, organism-based, Macaca fascicularis; parameters: dose 1 mg/kg, route intravenous; details: plasma
[27] = Drug metabolism in cynomolgus monkey intestinal microsomes by Michaelis-Menten plot analysis; format: ADME, Macaca fascicularis, Intestine, Microsome
[28] = AUC in Sprague-Dawley rat at 10 mg/kg, po; format: ADME, organism-based; parameters: dose 10 mg/kg, route oral; details: plasma
[29] = Half life in cynomolgus monkey at 3 mg/kg, po; format: ADME, organism-based, Macaca fascicularis; parameters: dose 3 mg/kg, route oral; details: in vivo
[30] = Solubility of the compound in phosphate buffered saline at pH 7 to 7.2; format: physicochemical
[31] = Cmax in double-cannulated Sprague-Dawley rat jugular vein at 10 mg/kg, po; format: ADME, organism-based; parameters: dose 10 mg/kg, route oral
[32] = Half life in cynomolgus monkey at 1 mg/kg, iv in presence of ketoconazole; format: ADME, organism-based, Macaca fascicularis; parameters: dose 1 mg/kg, route intravenous; details: in vivo
[33] = Half life in cynomolgus monkey at 3 mg/kg, po in presence of ketoconazole; format: ADME, organism-based, Macaca fascicularis; parameters: dose 3 mg/kg, route oral; details: in vivo
[34] = Cmax in cynomolgus monkey at 10 mg/kg, po; format: ADME, organism-based, Macaca fascicularis; parameters: dose 10 mg/kg, route oral; details: in vivo
[35] = Tmax in wild-type mouse at 3 mg/kg, po; format: ADME, organism-based; parameters: dose 3 mg/kg, route oral; details: in vivo
[36] = (§1) Drug metabolism in Sprague-Dawley rat liver microsomes after 7 mins by Michaelis-Menten plot analysis; format: ADME; details: Sprague-Dawley, liver microsomes
[37] = test system: Liver microsome; assay: as §1; format: ADME; details: microsomes, 7 min
[38] = organism: Rattus norvegicus; assay: Unbound intrinsic clearance in Sprague-Dawley rat; format: ADME, organism-based; details: in vivo
[39] = Cmax in MDR1A/1B knock-out mouse at 3 mg/kg, po; format: ADME, organism-based; parameters: dose 3 mg/kg, route oral; details: in vivo
[40] = Cmax in Sprague-Dawley rat at 30 mg/kg, po; format: ADME, organism-based; parameters: dose 30 mg/kg, route oral; details: in vivo
[41] = Ratio of drug level in blood to plasma in Sprague-Dawley rat at 0.25 uM after 10 mins by equilibrium dialysis technique; format: ADME; details: blood and plasma
[42] = biological target: T1, MDR1A (ABCB1, P-glycoprotein); assay: Activity of mouse MDR1A expressed in pig LLC-PK1 cells assessed as permeability from basolateral to apical side at 1 uM after 2 hrs; format: ADME, cell-based; details: read-out: permeability
[43] = Blood clearance in Sprague-Dawley rat; format: ADME, organism-based
[44] = test system: Cynomolgus monkey; assay: Hepatic blood clearance in cynomolgus monkey; format: ADME, organism-based, Macaca fascicularis; details: in vivo
[45] = Tmax in cynomolgus monkey at 3 mg/kg, po in presence of ketoconazole; format: ADME, organism-based, Macaca fascicularis; parameters: dose 3 mg/kg, route oral; details: in vivo
[46] = Half life in beagle dog at 10 mg/kg, po; format: ADME, organism-based, Canis lupus familiaris; parameters: dose 10 mg/kg, route oral; details: in vivo
[47] = Cmax in beagle dog at 10 mg/kg, po; format: ADME, organism-based, Canis lupus familiaris; parameters: dose 10 mg/kg, route oral; details: in vivo
[48] = test system: Cynomolgus monkey; assay: Ratio of dose normalized AUC in cynomolgus monkey at 3 mg/kg, po in presence of ketoconazole to dose normalized AUC in cynomolgus monkey at 3 mg/kg, po; format: ADME, organism-based, Macaca fascicularis; details: in vivo
[49] = organism: Canis familiaris; assay: Hepatic blood clearance in beagle dog; format: ADME, organism-based, Canis lupus familiaris; details: in vivo
[50] = test system: Cynomolgus monkey; assay: Ratio of dose normalized Cmax in cynomolgus monkey at 3 mg/kg, po in presence of ketoconazole to dose normalized Cmax in cynomolgus monkey at 3 mg/kg, po; format: ADME, organism-based, Macaca fascicularis; details: in vivo
[51] = (§2) Drug metabolism in beagle dog liver microsomes after 30 mins by Michaelis-Menten plot analysis; format: ADME, Canis lupus familiaris; details: beagle, liver microsomes
[52] = test system: Liver microsome; assay: as §2; format: ADME, Canis lupus familiaris; details: microsomes, 0.5 h

With Cc1nn(C[C@H](F)CN2C3CCC2CC(OCc2cccc(F)c2)C3)c(=O)n1C (some centres undefined) the fraction unbound at 0.25 µM [1] was 0.601, the Vd [2] was 1.84 L/kg and the Km at 0.25 h ([3]; liver microsomes) was 42.4 µM. The Vmax ([3]; microsomes, 0.25 h) was 3.58 nmol/min/mg, the Cmax [4] was 20 ng/mL and the bioavailability [5] was 15.1%. It also gave a half-life [6] of 1.36 h, a fraction unbound at 0.25 µM [7] of 0.675 and a Tmax [8] of 2 h. For the same compound, the AUC [9] was 1580 ng·h/mL, the Papp A→B at 2 h, 1 µM [10] was 9.67 ×10⁻⁶ cm/s and the bioavailability [11] was 43.7%. The fraction unbound at 0.25 µM [12] was 1, the clearance [13] was 28.3 mL/min/kg and the Tmax [14] was 0.25 h. For the same compound, the CLH [15] was 53.2 mL/min/kg, the fraction unbound at 0.25 µM [16] was 1 and the Vd [17] was 2.54 L/kg. It also gave a half-life [18] of 2.95 h, a Tmax [19] of 0.25 h and a clearance [20] of 32.8 mL/min/kg. It also gave a fraction unbound at 0.25 µM [21] of 1, a bioavailability [22] of 5.3% and a bioavailability [23] of 2.6%. The half-life [24] was 1.04 h, the Tmax [25] was 0.5 h and the AUC [26] was 820 ng·h/mL. It also gave a Km ([27]; intestinal microsomes) of 34.6 µM, a Vmax ([27]; microsomes) of 0.66 nmol/min/mg and an AUC [28] of 170 ng·h/mL. For the same compound, the half-life [29] was 1.59 h, the solubility [30] was > 2000 µg/mL and the Cmax [31] was 1040 ng/mL. For the same compound, the half-life [32] was 1.96 h, the half-life [33] was 2.2 h and the Cmax [34] was 470 ng/mL. It also gave a Tmax [35] of 0.5 h, a Km at 7 min [36] of 7.23 µM and a Vmax [37] of 1.42 nmol/min/mg. It also gave a CL free [38] of 196 µL/min/mg, a Cmax [39] of 100 ng/mL and a Cmax [40] of 1360 ng/mL. For the same compound, the blood plasma ratio at 10 min, 0.25 µM [41] was 0.89, the Papp B→A at 2 h, 1 µM [42] was 30.4 ×10⁻⁶ cm/s and the clearance [43] was 60 mL/min/kg. It also gave a CLH [44] of 33 mL/min/kg, a Tmax [45] of 1 h and a half-life [46] of 1.82 h. For the same compound, the Cmax [47] was 1070 ng/mL, the Ratio [48] was 1 and the CLH [49] was 30.5 mL/min/kg. The Ratio [50] was 1, the Km at 0.5 h [51] was 0.41 µM and the Vmax [52] was 0.07 nmol/min/mg.
